Assay results reported in patent US20230107642A1 (Erasca, Inc., priority 2020, published 2023).

What follows are molecules tested against T1, K-Ras G12C (Homo sapiens, UniProt P01116, G12C) (assay: CAF assay (% CAF; method in Example 7, not in this part)). Conditions: 10 uM compound, 1 h incubation.
T1 construct: This protein contained 188 amino acids in total, including an N-terminal 6-Histidine tag; made in house; host or cells: E. coli BL21
Format: binding
For `CC#CC(=O)N1C2CC(=O)CC1CN(c1nc(=O)n3c4c(c(-c5ccc(F)cc5F)c(C(F)(F)F)cc14)SCC3)C2` [Example 453, 7-(9-(but-2-ynoyl)-7-oxo-3,9-diazabicyclo[3.3.1]nonan-3-yl)-10-(2,4-difluorophenyl)-9-(trifluoromethyl)-2,3-dihydro-5H-[1,4]thiazino[2,3,4-ij]quinazolin-5-one], the “% CAF @ 10 uM, 1h” value was 37%. In the case of `C=CC(=O)N1CCN(c2nc(=O)n3c4c(c(-c5ccc(F)cc5F)c(C(F)(F)F)cc24)SC[C@@H](N(C)CC(F)(F)F)C3)[C@@H](C)C1` [Example 454, (3S)-8-((S)-4-acryloyl-2-methylpiperazin-1-yl)-11-(2,4-difluorophenyl)-3-(methyl(2,2,2-trifluoroethyl)amino)-10-(trifluoromethyl)-3,4-dihydro-2H,6H-[1,4]thiazepino[2,3,4-ij]quinazolin-6-one], the “% CAF @ 10 uM, 1h” value is reported as 61%. In the case of `C=CC(=O)N1CCN(c2nc(=O)n3c4c(c(-c5c(F)cc(F)cc5F)c(C(F)(F)F)cc24)SCCC3)[C@@H](C)C1` [Example 455, (S)-8-(4-acryloyl-2-methylpiperazin-1-yl)-10-(trifluoromethyl)-11-(2,4,6-trifluorophenyl)-3,4-dihydro-2H,6H-[1,4]thiazepino[2,3,4-ij]quinazolin-6-one], the “% CAF @ 10 uM, 1h” value is reported as 21%. `C=CC(=O)N1CCN(c2nc(=O)n3c4c(c(-c5cc(Cl)c(F)cc5F)c(Cl)cc24)SC[C@@H]3CN2CCC3(CC2)COC3)[C@@H](C)C1` [Example 456, (3S)-3-(2-oxa-7-azaspiro[3.5]nonan-7-ylmethyl)-7((S)-4-acryloyl-2-methylpiperazin-1-yl)-9-chloro-10-(5-chloro-2,4-difluorophenyl)-2H-[1,4]thiazino[2,3,4-ij]quinazolin-5(3H)-one] was tested, and the “% CAF @ 10 uM, 1h” value was 77.6%. For `C=CC(=O)N1CCN(c2nc(=O)n3c4c(c(-c5cc(Cl)c(F)cc5F)c(Cl)cc24)SC[C@@H]3CN2CCN(C3CC3)CC2)[C@@H](C)C1` [Example 458, (3S)-7-((S)-4-acryloyl-2-methylpiperazin-1-yl)-9-chloro-10-(5-chloro-2,4-difluorophenyl)-3-((4-cyclopropylpiperazin-1-yl)methyl)-2H-[1,4]thiazino[2,3,4-ij]quinazolin-5(3H)-one], the “% CAF @ 10 uM, 1h” value was 55.6%. In the case of `C=CC(=O)N1C[C@H](C)N(c2nc(=O)n3c4c(c(-c5cc(F)c(F)cc5F)c(Cl)cc24)SC[C@@H]3CN2CCn3c(nnc3C(F)(F)F)C2)C[C@H]1C` [Example 459, (3S)-7-((2S,5R)-4-acryloyl-2,5-dimethylpiperazin-1-yl)-9-chloro-3-((3-(trifluoromethyl)-5,6-dihydro-[1,2,4]triazolo[4,3-a]pyrazin-7(8H)-yl)methyl)-10-(2,4,5-trifluorophenyl)-2H-[1,4]thiazino[2,3,4-ij]quinazolin-5(3H)-one], the “% CAF @ 10 uM, 1h” value is reported as 82.2%. In the case of `C=CC(=O)N1C[C@H](C)N(c2nc(=O)n3c4c(c(-c5cc(F)c(F)cc5F)c(Cl)cc24)SC[C@@H]3CN2CCC3(CC2)COC3)C[C@H]1C` [Example 460], the “% CAF @ 10 uM, 1h” value is reported as 79.7%. With `C=CC(=O)N1C[C@H](C)N(c2nc(=O)n3c4c(c(-c5cc(Cl)c(F)cc5F)c(Cl)cc24)SC[C@@H]3CC2CCN(CC(F)F)CC2)C[C@H]1C` [Example 461, (3S)-7-((2S,5R)-4-acryloyl-2,5-dimethylpiperazin-1-yl)-9-chloro-10-(5-chloro-2,4-difluorophenyl)-3-((1-(2,2-difluoroethyl)piperidin-4-yl)methyl)-2H-[1,4]thiazino[2,3,4-ij]quinazolin-5(3H)-one] the “% CAF @ 10 uM, 1h” value was 79.5%. For `C=CC(=O)N1CCN(c2nc(=O)n3c4c(c(-c5ccc(F)cc5)c(Cl)cc24)SC[C@@H]3CN2CCC3(CC2)COC3)[C@@H](C)C1` [Example 462, (S)-3-(2-oxa-7-azaspiro[3.5]nonan-7-ylmethyl)-7-((S)-4-acryloyl-2-methylpiperazin-1-yl)-9-chloro-10-(4-fluorophenyl)-2H-[1,4]thiazino[2,3,4-ij]quinazolin-5(3H)-one], the “% CAF @ 10 uM, 1h” value was 87.8%. With `C=CC(=O)N1CCN(c2nc(=O)n3c4c(c(-c5cc(F)c(F)cc5F)c(Cl)cc24)SC[C@@H]3CN2CCn3c(nnc3C(F)(F)F)C2)[C@@H](C)C1` [Example 463, (3S)-7-((S)-4-acryloyl-2-methylpiperazin-1-yl)-9-chloro-3-((3-(trifluoromethyl)-5,6-dihydro-[1,2,4]triazolo[4,3-a]pyrazin-7(8H)-yl)methyl)-10-(2,4,5-trifluorophenyl)-2H-[1,4]thiazino[2,3,4-ij]quinazolin-5(3H)-one] the “% CAF @ 10 uM, 1h” value was 69%. `C=CC(=O)N1CCN(c2nc(=O)n3c4c(c(-c5ccc(F)cc5F)c(C(F)(F)F)cc24)SC[C@@H](OC)C3)[C@@H](C)C1` [Example 464, (3S)-8-((S)-4-acryloyl-2-methylpiperazin-1-yl)-11-(2,4-difluorophenyl)-3-methoxy-10-(trifluoromethyl)-3,4-dihydro-2H,6H-[1,4]thiazepino[2,3,4-ij]quinazolin-6-one] was tested, and the “% CAF @ 10 uM, 1h” value was 95%. `C=CC(=O)N1CCN(c2nc(=O)n3c4c(c(-c5ccc(F)cc5F)c(C(F)(F)F)cc24)SC[C@H](OC)C3)[C@@H](C)C1` [Example 465, (3R)-8-((S)-4-acryloyl-2-methylpiperazin-1-yl)-11-(2,4-difluorophenyl)-3-methoxy-10-(trifluoromethyl)-3,4-dihydro-2H,6H-[1,4]thiazepino[2,3,4-ij]quinazolin-6-one] was tested, and the “% CAF @ 10 uM, 1h” value was 96%. `C=CC(=O)N1CCN(c2nc(=O)n3c4c(c(-c5cc(F)c(F)cc5F)c(Cl)cc24)SC[C@H]3COCOC)[C@@H](C)C1` [Example 466, (3R)-7-((S)-4-acryloyl-2-methylpiperazin-1-yl)-9-chloro-3-((methoxymethoxy)methyl)-10-(2,4,5-trifluorophenyl)-2H-[1,4]thiazino[2,3,4-ij]quinazolin-5(3H)-one] was tested, and the “% CAF @ 10 uM, 1h” value was 22.6%. With `C=CC(=O)N1C[C@H](C)N(c2nc(=O)n3c4c(c(-c5cc(Cl)c(F)cc5F)c(Cl)cc24)SC[C@@H]3CC2CCN(C3CC3)CC2)C[C@H]1C` [Example 467, (3S)-7-((2S,5R)-4-acryloyl-2,5-dimethylpiperazin-1-yl)-9-chloro-10-(5-chloro-2,4-difluorophenyl)-3-((1-cyclopropylpiperidin-4-yl)methyl)-2H-[1,4]thiazino[2,3,4-ij]quinazolin-5(3H)-one] the “% CAF @ 10 uM, 1h” value was 44.3%. In the case of `C=CC(=O)N1C[C@H](C)N(c2nc(=O)n3c4c(c(-c5ccc(F)cc5F)c(Cl)cc24)SC[C@@H]3CN2CCn3c(nnc3C(F)(F)F)C2)C[C@H]1C` [Example 468, (3S)-7-((2S,5R)-4-acryloyl-2,5-dimethylpiperazin-1-yl)-9-chloro-10-(2,4-difluorophenyl)-3-((3-(trifluoromethyl)-5,6-dihydro-[1,2,4]triazolo[4,3-a]pyrazin-7(8H)-yl)methyl)-2H-[1,4]thiazino[2,3,4-ij]quinazolin-5(3H)-one], the “% CAF @ 10 uM, 1h” value is reported as 68.6%. In the case of `C=CC(=O)N1CCN(c2nc(=O)n3c4c(c(-c5cc(F)c(F)cc5F)c(Cl)cc24)SC[C@@H]3CN2CCC3(CC2)COC3)[C@@H](C)C1` [Example 469, (3S)-3-(2-oxa-7-azaspiro[3.5]nonan-7-ylmethyl)-7-((S)-4-acryloyl-2-methylpiperazin-1-yl)-9-chloro-10-(2,4,5-trifluorophenyl)-2H-[1,4]thiazino[2,3,4-ij]quinazolin-5(3H)-one], the “% CAF @ 10 uM, 1h” value is reported as 57.8%. In the case of `C=CC(=O)N1CCN(c2nc(=O)n3c4c(c(-c5cc(Cl)c(F)cc5F)c(C(F)(F)F)cc24)SC[C@H]3COCOC)[C@@H](C)C1` [Example 470, (3R)-7-((S)-4-acryloyl-2-methylpiperazin-1-yl)-10-(5-chloro-2,4-difluorophenyl)-3-((methoxymethoxy)methyl)-9-(trifluoromethyl)-2H-[1,4]thiazino[2,3,4-ij]quinazolin-5(3H)-one], the “% CAF @ 10 uM, 1h” value is reported as 35%. For `C=CC(=O)N1CCN(c2nc(=O)n3c4c(c(-c5cc(F)c(F)cc5F)c(C(F)(F)F)cc24)SC[C@H]3COCOC)[C@@H](C)C1` [Example 471, (3R)-7-((S)-4-acryloyl-2-methylpiperazin-1-yl)-3-((methoxymethoxy)methyl)-9-(trifluoromethyl)-10-(2,4,5-trifluorophenyl)-2H-[1,4]thiazino[2,3,4-ij]quinazolin-5(3H)-one], the “% CAF @ 10 uM, 1h” value was 23.9%. In the case of `C=CC(=O)N1CCN(c2nc(=O)n3c4c(c(-c5ccc(F)cc5F)c(Cl)cc24)SC[C@@H]3CN2CCC3(CC2)COC3)[C@@H](C)C1` [Example 472, (3S)-3-(2-oxa-7-azaspiro[3.5]nonan-7-ylmethyl)-7-((S)-4-acryloyl-2-methylpiperazin-1-yl)-9-chloro-10-(2,4-difluorophenyl)-2H-[1,4]thiazino[2,3,4-ij]quinazolin-5(3H)-one], the “% CAF @ 10 uM, 1h” value is reported as 72.3%. With `C=CC(=O)N1C[C@H](C)N(c2nc(=O)n3c4c(c(-c5ccc(F)cc5)c(Cl)cc24)SC[C@@H]3CN2CCC3(CC2)COC3)C[C@H]1C` [Example 473, (S)-3-(2-oxa-7-azaspiro[3.5]nonan-7-ylmethyl)-7-((2S,5R)-4-acryloyl-2,5-dimethylpiperazin-1-yl)-9-chloro-10-(4-fluorophenyl)-2H-[1,4]thiazino[2,3,4-ij]quinazolin-5(3H)-one] the “% CAF @ 10 uM, 1h” value was 65.8%. For `C=CC(=O)N1CCN(c2nc(=O)n3c4c(c(-c5ccc(F)c6cccnc56)c(Cl)cc24)SC[C@@H]3COC)[C@@H](C)C1` [Example 474, (3S)-7-((S)-4-acryloyl-2-methylpiperazin-1-yl)-9-chloro-10-(5-fluoroquinolin-8-yl)-3-(methoxymethyl)-2,3-dihydro-5H-[1,4]thiazino[2,3,4-ij]quinazolin-5-one], the “% CAF @ 10 uM, 1h” value was 73.3%. In the case of `C=CC(=O)N1C[C@H](C)N(c2nc(=O)n3c4c(c(-c5cc(F)c(F)cc5F)c(Cl)cc24)SC[C@@H]3CC2CCN(C3CC3)CC2)C[C@H]1C` [Example 475, (3S)-7-((2S,5R)-4-acryloyl-2,5-dimethylpiperazin-1-yl)-9-chloro-3-((1-cyclopropylpiperidin-4-yl)methyl)-10-(2,4,5-trifluorophenyl)-2H-[1,4]thiazino[2,3,4-ij]quinazolin-5(3H)-one], the “% CAF @ 10 uM, 1h” value is reported as 49.8%.
